For 6 molecules, MIC results are on record in DBAASP.

Converted amounts (≈) assume the structure as drawn. Where only a bound is given, the exact number is not on record here.

Test systems include Escherichia coli ML-35p; Staphylococcus aureus; Bacillus subtilis; Pseudomonas aeruginosa; Escherichia coli; Enterobacter cloacae.
What all share (experiment): ≥ marks a high value that may be exact or a test limit, other limits are often not marked, values filed in µg/mL are converted to µM
The test system of experiment [1] is Escherichia coli ATCC 25922.
Experiment [2] deals with Staphylococcus aureus ATCC 25923.
Experiment [3] concerns Bacillus subtilis ATCC 6633.
Experiment [4] concerns Candida albicans ATCC 20032.
The test system of experiment [5] is Bacillus subtilis IFO 3513.
The subject of experiment [6] is Escherichia coli IFO 12734.
Experiment [7] has as its system Staphylococcus aureus IFO 12732.
Experiment [8] has as its system Staphylococcus sp. BCRC 10451.
Experiment [9] has as its system Malassezia sympodialis ATCC 42132.
For experiment [10], the system named is Staphylococcus aureus RN4220.
In experiment [11] the test system is Salmonella enterica subsp. enterica serovar Typhi.
For experiment [12], the system named is Candida albicans ATCC 90028.
Experiment [13] deals with Pseudomonas aeruginosa ATCC 27853.

Turning to `CC[C@H](C)[C@H](NC(=O)CN)C(=O)NCC(=O)NCC(=O)N[C@@H](C)C(=O)N[C@@H](CC(C)C)C(=O)N[C@@H](CC(C)C)C(=O)N[C@@H](CO)C(=O)N[C@@H](C)C(=O)NCC(=O)N[C@@H](CCCCN)C(=O)N[C@@H](CO)C(=O)N[C@@H](C)C(=O)N[C@@H](CC(C)C)C(=O)N[C@@H](CCCCN)C(=O)NCC(=O)N[C@@H](CC(C)C)C(=O)N[C@@H](C)C(=O)N[C@@H](CCCCN)C(=O)NCC(=O)N[C@@H](CC(C)C)C(=O)N[C@@H](C)C(=O)N[C@@H](CCC(=O)O)C(=O)N[C@@H](Cc1cnc[nH]1)C(=O)N[C@@H](CC(C)C)C(N)=O` [GIGGALLSAGKSALKGLAKGLAEHL], the MIC (as a rule, the smallest concentration in the dilution series that meets the test's criterion for growth inhibition) in [1] was > 42.9 µM; in experiment [2] it was 8.06 µM (≈ 18.8 µg/mL); in experiment [3], ≥ 42.9 µM; in [4] it was ≥ 42.9 µM.

As for `CC[C@H](C)[C@H](N)C(=O)N[C@@H](CC(C)C)C(=O)N1CCC[C@H]1C(=O)N[C@@H](CCCCN)C(=O)N[C@@H](CCCCN)C(=O)N[C@@H](CCCCN)C(=O)N1CCC[C@H]1C(=O)N[C@@H](Cc1c[nH]c2ccccc12)C(=O)N[C@@H](Cc1c[nH]c2ccccc12)C(=O)N1CCC[C@H]1C(=O)N[C@@H](Cc1c[nH]c2ccccc12)C(=O)N[C@@H](CCCN=C(N)N)C(=O)N[C@@H](CCCN=C(N)N)C(N)=O` [ILPKKKPWWPWRR], the minimal inhibitory concentration (MIC) was 3.49 µM (≈ 6.25 µg/mL) in experiment [5], ≥ 55.8 µM in experiment [6] and 3.49 µM (≈ 6.25 µg/mL) in experiment [7].

On to `CC[C@H](C)[C@H](N)C(=O)N[C@@H](CC(C)C)C(=O)N1CCC[C@H]1C(=O)N[C@@H](Cc1c[nH]c2ccccc12)C(=O)N[C@@H](CCCCN)C(=O)N[C@@H](CCCCN)C(=O)N1CCC[C@H]1C(=O)N[C@@H](CCCCN)C(=O)N[C@@H](CC(C)C)C(=O)N1CCC[C@H]1C(=O)N[C@@H](Cc1c[nH]c2ccccc12)C(=O)N[C@@H](CCCN=C(N)N)C(=O)N[C@@H](CCCN=C(N)N)C(N)=O` [ILPWKKPKLPWRR], for which the results for the minimum inhibitory concentration (MIC) in experiment [5], in experiment [6] and in experiment [7] were 0.908 µM (≈ 1.56 µg/mL), 7.28 µM (≈ 12.5 µg/mL) and 1.82 µM (≈ 3.13 µg/mL), respectively.

Turning to `CC[C@H](C)[C@H](NC(=O)[C@H](CCCCN)NC(=O)[C@@H]1CCCN1C(C)=O)C(=O)N[C@H](C(=O)N[C@@H](CO)C(=O)N[C@@H](CO)C(=O)N1CCC[C@H]1C(=O)N[C@@H](CC(C)C)C(=O)N[C@@H](Cc1ccccc1)C(=O)N[C@@H](CCCCN)C(=O)N[C@H](C(=O)N[C@@H](CC(C)C)C(=O)N[C@@H](CC(C)C)C(=O)N[C@@H](CO)C(=O)N[C@@H](C)C(=O)N[C@H](C(=O)NCC(=O)N[C@@H](CO)C(=O)N[C@@H](C)C(=O)N[C@@H](CC(C)C)C(=O)N[C@@H](CO)C(=O)N[C@@H](CO)C(=O)N[C@@H](CO)C(=O)NCC(=O)NCC(=O)N[C@@H](CCC(N)=O)C(=O)N[C@@H](CCC(=O)O)C(N)=O)C(C)C)[C@@H](C)O)[C@@H](C)CC` [PKIISSPLFKTLLSAVGSALSSSGGQE], the minimum inhibitory concentration (MIC) in experiment [8] was ≥ 37.4 µM.

`NC(=O)[C@H](CCCN=C(N)N)NC(=O)[C@H](CCCN=C(N)N)NC(=O)[C@H](CCCN=C(N)N)NC(=O)[C@H](CCCN=C(N)N)NC(=O)[C@H](CCCN=C(N)N)NC(=O)[C@H](CCCN=C(N)N)NC(=O)[C@H](CCCN=C(N)N)NC(=O)[C@H](CCCN=C(N)N)NC(=O)[C@@H](N)CCCN=C(N)N` [RRRRRRRRR]: the minimal inhibitory concentration (MIC) in the experiment with Escherichia coli ML-35p is ≥ 100 µM; in experiment [9], 9.83 µM (≈ 14 µg/mL); in [10] it was ≥ 100 µM.

`CC(C)C[C@H](NC(=O)[C@H](CCCCN)NC(=O)[C@H](CCCN=C(N)N)NC(=O)[C@H](Cc1ccccc1)NC(=O)[C@H](Cc1ccccc1)NC(=O)[C@H](CCCCN)NC(=O)[C@H](CCCCN)NC(=O)[C@H](Cc1ccccc1)NC(=O)[C@H](CCCN=C(N)N)NC(=O)[C@H](CCCCN)NC(=O)[C@@H](N)C(C)C)C(=O)N[C@@H](CCCCN)C(=O)N[C@@H](CCCCN)C(=O)N[C@@H](CO)C(N)=O` [VKRFKKFFRKLKKS]: the minimal inhibitory concentration (MIC) in [1] is 69.6 µM (≈ 128 µg/mL); in experiment [11], 17.4 µM (≈ 32 µg/mL); in the experiment on Staphylococcus aureus, 69.6 µM (≈ 128 µg/mL); in experiment [2] it was 2.17 µM (≈ 4 µg/mL); in experiment [12], ≥ 69.6 µM; against Bacillus subtilis, ≥ 34.8 µM. The minimum inhibitory concentration (MIC) was 17.4 µM (≈ 32 µg/mL) with Pseudomonas aeruginosa, 17.4 µM (≈ 32 µg/mL) against Escherichia coli, 69.6 µM (≈ 128 µg/mL) in experiment [13] and ≥ 139 µM with Enterobacter cloacae.
